{"source": "patent US7452871B2", "about": "“Compositions and methods for treating mammals with modified alginates and modified pectins” (EcoNugenics, Inc., priority 1999, dated 2008)", "origin": "cited, not measured here", "key": {"[1]": {"conditions": "rats"}, "[2]": {"conditions": "rats", "remark": "listed apart in the source"}, "[3]": {"test_system": "cancer metastasis", "conditions": "modified citrus pectin: oral administration"}}}
{"substance": "AG-270", "values": [{"measurement": "cholesterol excretion", "setting": "[1]", "result": "enhanced cholesterol secretion"}, {"measurement": "blood glucose levels after glucose administration", "setting": "[2]", "result": "inhibited blood glucose levels from rising"}]}
{"substance": "AG-10", "values": [{"measurement": "cholesterol excretion", "setting": "[1]", "result": "enhanced cholesterol secretion"}, {"measurement": "blood glucose levels after glucose administration", "setting": "[2]", "result": "inhibited blood glucose levels from rising"}]}
{"substance": "modified citrus pectin", "values": [{"measurement": "suppressing or preventing metastases", "setting": "[3]", "result": "may be effective in suppressing or preventing metastases"}]}
